Laboratory results from patent US6358885B1, “Substituted phenylheterocyclic herbicides” (Mississippi State University, priority 1992, dated 2002).

Tests used:
Experiment in all cases: Test B preemergence/postemergence greenhouse plant response rating 0 to 10
barley = assay type: in vivo, Hordeum vulgare; conditions: for Plant response rating, Barley: 0 to 10 scale
How it was run: (§1)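 Test chemicals were sprayed onto freshly planted seed and, concurrently, onto young plants between the one and four leaf stage. After a twelve- to sixteen-day greenhouse period, each species was visually compared with untreated controls.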

barnyardgrass = assay type: in vivo, Echinochloa crus-galli; conditions: for Plant response rating, Barnyardgrass: 0 to 10 scale
How it was run: as §1

bedstraw = assay type: in vivo, Galium aparine; conditions: for Plant response rating, Bedstraw: 0 to 10 scale
How it was run: as §1

blackgrass = assay type: in vivo, Alopecurus myosuroides; conditions: for Plant response rating, Blackgrass: 0 to 10 scale
How it was run: as §1

cheatgrass = assay type: in vivo, Bromus secalinus; conditions: for Plant response rating, Cheatgrass: 0 to 10 scale
How it was run: as §1

chickweed = assay type: in vivo, Stellaria media; conditions: for Plant response rating, Chickweed: 0 to 10 scale
How it was run: as §1

cocklebur = assay type: in vivo, Xanthium pensylvanicum; conditions: for Plant response rating, Cocklebur: 0 to 10 scale
How it was run: as §1

corn = assay type: in vivo, Zea mays; conditions: for Plant response rating, Corn: 0 to 10 scale
How it was run: as §1

cotton = assay type: in vivo, Gossypium hirsutum; conditions: for Plant response rating, Cotton: 0 to 10 scale
How it was run: as §1

crabgrass = assay type: in vivo, Digitaria spp.; conditions: for Plant response rating, Crabgrass: 0 to 10 scale
How it was run: as §1

giant foxtail = assay type: in vivo, Setaria faberii; conditions: for Plant response rating, Giant foxtail: 0 to 10 scale
How it was run: as §1

lambsquarters = assay type: in vivo, Chenopodium album; conditions: for Plant response rating, Lambsquarter: 0 to 10 scale
How it was run: as §1

morningglory = assay type: in vivo, Ipomoea hederacea; conditions: for Plant response rating, Morningglory: 0 to 10 scale
How it was run: as §1

rape = assay type: in vivo, Brassica napus; conditions: for Plant response rating, Rape: 0 to 10 scale
How it was run: as §1

rice = assay type: in vivo, Oryza sativa; conditions: for Plant response rating, Rice: 0 to 10 scale
How it was run: as §1

sorghum = assay type: in vivo, Sorghum bicolor; conditions: for Plant response rating, Sorghum: 0 to 10 scale
How it was run: as §1

soybean = assay type: in vivo, Glycine max; conditions: for Plant response rating, Soybean: 0 to 10 scale
How it was run: as §1

sugar beet = assay type: in vivo, Beta vulgaris; conditions: for Plant response rating, Sugar beet: 0 to 10 scale
How it was run: as §1

velvetleaf = assay type: in vivo, Abutilon theophrasti; conditions: for Plant response rating, Velvetleaf: 0 to 10 scale
How it was run: as §1

wheat = assay type: in vivo, Triticum aestivum; conditions: for Plant response rating, Wheat: 0 to 10 scale
How it was run: as §1

wild buckwheat = assay type: in vivo, Polygonum convolvulus; conditions: for Plant response rating, Wild buckwheat: 0 to 10 scale
How it was run: as §1

wild oat = assay type: in vivo, Avena fatua; conditions: for Plant response rating, Wild oat: 0 to 10 scale
How it was run: as §1

purple nutsedge = assay type: in vivo, Cyperus rotundus; conditions: for Plant response rating, Nutsedge: 0 to 10 scale
How it was run: as §1

Compound: COCCOc1cc(-c2nn3c(c2Cl)CCCC3)c(Cl)cc1Cl [Compound 72]
- Plant response rating, Barley (barley; POSTEMERGENCE, Rate 50 g/ha): 4
- Plant response rating, Barley (barley; PREEMERGENCE, Rate 50 g/ha): 0
- Plant response rating (0 to 10 scale), Barley (barley; PREEMERGENCE, Rate 200 g/ha): 0
- Plant response rating, Barley (barley; Rate 200 g/ha, POSTEMERGENCE): 5
- Plant response rating, Barnyardgrass (barnyardgrass; POSTEMERGENCE, Rate 50 g/ha): 5
- Plant response rating, Barnyardgrass (barnyardgrass; PREEMERGENCE, Rate 50 g/ha): 3
- Plant response rating (0 to 10 scale), Barnyardgrass (barnyardgrass; PREEMERGENCE, Rate 200 g/ha): 3
- Plant response rating, Barnyardgrass (barnyardgrass; Rate 200 g/ha, POSTEMERGENCE): 7
- Plant response rating, Bedstraw (bedstraw; POSTEMERGENCE, Rate 50 g/ha): 7
- Plant response rating, Bedstraw (bedstraw; PREEMERGENCE, Rate 50 g/ha): 0
- Plant response rating (0 to 10 scale), Bedstraw (bedstraw; PREEMERGENCE, Rate 200 g/ha): 8
- Plant response rating, Bedstraw (bedstraw; Rate 200 g/ha, POSTEMERGENCE): 9
- Plant response rating, Blackgrass (blackgrass; POSTEMERGENCE, Rate 50 g/ha): 5
- Plant response rating, Blackgrass (blackgrass; PREEMERGENCE, Rate 50 g/ha): 0
- Plant response rating (0 to 10 scale), Blackgrass (blackgrass; PREEMERGENCE, Rate 200 g/ha): 4
- Plant response rating, Blackgrass (blackgrass; Rate 200 g/ha, POSTEMERGENCE): 7
- Plant response rating, Cheatgrass (cheatgrass; POSTEMERGENCE, Rate 50 g/ha): 5
- Plant response rating, Cheatgrass (cheatgrass; PREEMERGENCE, Rate 50 g/ha): 0
- Plant response rating (0 to 10 scale), Cheatgrass (cheatgrass; PREEMERGENCE, Rate 200 g/ha): 3
- Plant response rating, Cheatgrass (cheatgrass; Rate 200 g/ha, POSTEMERGENCE): 6
- Plant response rating, Chickweed (chickweed; POSTEMERGENCE, Rate 50 g/ha): 2
- Plant response rating, Chickweed (chickweed; PREEMERGENCE, Rate 50 g/ha): 0
- Plant response rating (0 to 10 scale), Chickweed (chickweed; PREEMERGENCE, Rate 200 g/ha): 9
- Plant response rating, Chickweed (chickweed; Rate 200 g/ha, POSTEMERGENCE): 3
- Plant response rating, Cocklebur (cocklebur; POSTEMERGENCE, Rate 50 g/ha): 8
- Plant response rating, Cocklebur (cocklebur; PREEMERGENCE, Rate 50 g/ha): 0
- Plant response rating (0 to 10 scale), Cocklebur (cocklebur; PREEMERGENCE, Rate 200 g/ha): 0
- Plant response rating, Cocklebur (cocklebur; Rate 200 g/ha, POSTEMERGENCE): 10
- Plant response rating, Corn (corn; POSTEMERGENCE, Rate 50 g/ha): 3
- Plant response rating, Corn (corn; PREEMERGENCE, Rate 50 g/ha): 0
- Plant response rating (0 to 10 scale), Corn (corn; PREEMERGENCE, Rate 200 g/ha): 2
- Plant response rating, Corn (corn; Rate 200 g/ha, POSTEMERGENCE): 5
- Plant response rating, Cotton (cotton; POSTEMERGENCE, Rate 50 g/ha): 10
- Plant response rating, Cotton (cotton; PREEMERGENCE, Rate 50 g/ha): 0
- Plant response rating (0 to 10 scale), Cotton (cotton; PREEMERGENCE, Rate 200 g/ha): 0
- Plant response rating, Cotton (cotton; Rate 200 g/ha, POSTEMERGENCE): 10
- Plant response rating, Crabgrass (crabgrass; POSTEMERGENCE, Rate 50 g/ha): 2
- Plant response rating, Crabgrass (crabgrass; PREEMERGENCE, Rate 50 g/ha): 0
- Plant response rating (0 to 10 scale), Crabgrass (crabgrass; PREEMERGENCE, Rate 200 g/ha): 9
- Plant response rating, Crabgrass (crabgrass; Rate 200 g/ha, POSTEMERGENCE): 2
- Plant response rating, Giant foxtail (giant foxtail; POSTEMERGENCE, Rate 50 g/ha): 4
- Plant response rating, Giant foxtail (giant foxtail; PREEMERGENCE, Rate 50 g/ha): 3
- Plant response rating (0 to 10 scale), Giant foxtail (giant foxtail; PREEMERGENCE, Rate 200 g/ha): 7
- Plant response rating, Giant foxtail (giant foxtail; Rate 200 g/ha, POSTEMERGENCE): 5
- Plant response rating, Lambsquarter (lambsquarters; POSTEMERGENCE, Rate 50 g/ha): 10
- Plant response rating, Lambsquarter (lambsquarters; PREEMERGENCE, Rate 50 g/ha): 9
- Plant response rating (0 to 10 scale), Lambsquarter (lambsquarters; PREEMERGENCE, Rate 200 g/ha): 10
- Plant response rating, Lambsquarter (lambsquarters; Rate 200 g/ha, POSTEMERGENCE): 10
- Plant response rating, Morningglory (morningglory; POSTEMERGENCE, Rate 50 g/ha): 7
- Plant response rating, Morningglory (morningglory; PREEMERGENCE, Rate 50 g/ha): 0
- Plant response rating (0 to 10 scale), Morningglory (morningglory; PREEMERGENCE, Rate 200 g/ha): 0
- Plant response rating, Morningglory (morningglory; Rate 200 g/ha, POSTEMERGENCE): 9
- Plant response rating, Rape (rape; POSTEMERGENCE, Rate 50 g/ha): 9
- Plant response rating, Rape (rape; PREEMERGENCE, Rate 50 g/ha): 0
- Plant response rating (0 to 10 scale), Rape (rape; PREEMERGENCE, Rate 200 g/ha): 6
- Plant response rating, Rape (rape; Rate 200 g/ha, POSTEMERGENCE): 9
- Plant response rating, Rice (rice; POSTEMERGENCE, Rate 50 g/ha): 4
- Plant response rating, Rice (rice; PREEMERGENCE, Rate 50 g/ha): 0
- Plant response rating (0 to 10 scale), Rice (rice; PREEMERGENCE, Rate 200 g/ha): 0
- Plant response rating, Rice (rice; Rate 200 g/ha, POSTEMERGENCE): 6
- Plant response rating, Sorghum (sorghum; POSTEMERGENCE, Rate 50 g/ha): 5
- Plant response rating, Sorghum (sorghum; PREEMERGENCE, Rate 50 g/ha): 0
- Plant response rating (0 to 10 scale), Sorghum (sorghum; PREEMERGENCE, Rate 200 g/ha): 0
- Plant response rating, Sorghum (sorghum; Rate 200 g/ha, POSTEMERGENCE): 6
- Plant response rating, Soybean (soybean; POSTEMERGENCE, Rate 50 g/ha): 6
- Plant response rating, Soybean (soybean; PREEMERGENCE, Rate 50 g/ha): 0
- Plant response rating (0 to 10 scale), Soybean (soybean; PREEMERGENCE, Rate 200 g/ha): 0
- Plant response rating, Soybean (soybean; Rate 200 g/ha, POSTEMERGENCE): 7
- Plant response rating, Sugar beet (sugar beet; POSTEMERGENCE, Rate 50 g/ha): 10
- Plant response rating, Sugar beet (sugar beet; PREEMERGENCE, Rate 50 g/ha): 0
- Plant response rating (0 to 10 scale), Sugar beet (sugar beet; PREEMERGENCE, Rate 200 g/ha): 9
- Plant response rating, Sugar beet (sugar beet; Rate 200 g/ha, POSTEMERGENCE): 10
- Plant response rating, Velvetleaf (velvetleaf; POSTEMERGENCE, Rate 50 g/ha): 9
- Plant response rating, Velvetleaf (velvetleaf; PREEMERGENCE, Rate 50 g/ha): 0
- Plant response rating (0 to 10 scale), Velvetleaf (velvetleaf; PREEMERGENCE, Rate 200 g/ha): 10
- Plant response rating, Velvetleaf (velvetleaf; Rate 200 g/ha, POSTEMERGENCE): 10
- Plant response rating, Wheat (wheat; POSTEMERGENCE, Rate 50 g/ha): 5
- Plant response rating, Wheat (wheat; PREEMERGENCE, Rate 50 g/ha): 0
- Plant response rating (0 to 10 scale), Wheat (wheat; PREEMERGENCE, Rate 200 g/ha): 3
- Plant response rating, Wheat (wheat; Rate 200 g/ha, POSTEMERGENCE): 5
- Plant response rating, Wild buckwheat (wild buckwheat; POSTEMERGENCE, Rate 50 g/ha): 10
- Plant response rating, Wild buckwheat (wild buckwheat; PREEMERGENCE, Rate 50 g/ha): 0
- Plant response rating (0 to 10 scale), Wild buckwheat (wild buckwheat; PREEMERGENCE, Rate 200 g/ha): 2
- Plant response rating, Wild buckwheat (wild buckwheat; Rate 200 g/ha, POSTEMERGENCE): 10
- Plant response rating, Wild oat (wild oat; POSTEMERGENCE, Rate 50 g/ha): 3
- Plant response rating, Wild oat (wild oat; PREEMERGENCE, Rate 50 g/ha): 0
- Plant response rating (0 to 10 scale), Wild oat (wild oat; PREEMERGENCE, Rate 200 g/ha): 3
- Plant response rating, Wild oat (wild oat; Rate 200 g/ha, POSTEMERGENCE): 4
- Plant response rating, Nutsedge (purple nutsedge; POSTEMERGENCE, Rate 50 g/ha): 2
- Plant response rating, Nutsedge (purple nutsedge; PREEMERGENCE, Rate 50 g/ha): 0
- Plant response rating (0 to 10 scale), Nutsedge (purple nutsedge; PREEMERGENCE, Rate 200 g/ha): 4
- Plant response rating, Nutsedge (purple nutsedge; Rate 200 g/ha, POSTEMERGENCE): 2
